Entries after “also recorded” stand apart in the source; their conditions may differ.
Legend:
participants with SSc-RP [1] = experiment: SHAQ Visual Analog Scale - Intestinal Problems; assay type: in vivo, human; conditions: Modified ITT, Part A
Method: Results: Patients in the study were administered the Scleroderma Health Assessment Questionnaire (SHAQ) at the time of study entry and during clinic visits following the treatment period. The study is a two-part, parallel arm design, prospective, double-blind, randomized study conducted in Australia (Flinders Medical Center). 27 patients were randomized into the first phase of the study, following which a DSMB meeting was held, which reviewed data on the primary study endpoint and key Raynaud's secondary endpoints. Data on the SHAQ was not available for the DSMB to review. The mITT population, in which any data was available post treatment was 24 patients was the analysis population for this first part of the study. The second part (i.e., part B) of the study will randomize 36 patients in a double blind, randomized, prospective, placebo controlled, crossover study. In the first part (i.e., Part A) of the study for which data is presented, patients were randomized into 6 groups, cilnidipine at two doses (10 and 20 mg) alone and in combination with tadalafil 5 mg, tadalafil 5 mg alone, and placebo. […] The DSMB recommended that the study proceed into its double blind prospective cross overpowered second phase and compare cilnidipine 20 mg alone to placebo. […] Cilnidipine treatment may reduce patient-reported SSc disease disability compared to placebo • b. Cilnidipine treatment may reduce patient-reported SSc disease alternative disability compared to placebo • c. Cilnidipine treatment may reduce patient-reported SSc disease pain* compared to placebo • d. Cilnidipine treatment may reduce patient-reported SSc disease severity compared to placebo • e. Cilnidipine treatment may reduce patient-reported SSc disease skin ulcer severity rating compared to placebo • f Cilnidipine treatment may reduce patient-reported SSc disease breathing difficulty compared to placebo • g. […] SSc disease pain comprises not only pain from Raynaud's but joint pain, headache, odynophagia, back pain, pain from skin ulceration, and neuropathic pain). Table E includes results of the Scleroderma Health Assessment Questionnaire.

participants with SSc-RP [2] = experiment: Adverse events and serious adverse events (safety, tolerability); assay type: in vivo
From the text: In this study, AEs and SAEs will be reported for all participants from the time of randomization until the completion of the Follow-up/EOS visit. Adverse events that are ongoing at the EOS visit will be marked as Not Recovered/Not resolved on the AE eCRF page.
An AE is any event, side effect, or other untoward medical occurrence that occurs in conjunction with the use of a medicinal product in humans, whether or not considered to have a causal relationship to this treatment. An AE can, therefore, be any unfavorable and unintended sign (that could include a clinically significant abnormal laboratory finding), symptom, or disease temporally associated with the use of a medicinal product, whether or not considered related to the medicinal product.
Severity of AEs will be graded by the Investigator as one of: • Mild (Grade 1): A type of AE that is usually transient and may require only minimal treatment or therapeutic intervention.
An SAE is an AE occurring during any study phase (i.e. baseline, treatment, washout, or follow-up), and at any dose of the study drug (active or placebo), that fulfills one or more of the following: • Results in death • It is immediately life-threatening • It requires in participant hospitalization or prolongation of existing hospitalization • It results in persistent or significant disability or incapacity • Results in a congenital abnormality or birth defect • It is an important medical event that may jeopardize the participant or may require medical intervention to prevent one of the outcomes listed above.
Adverse events will be coded using the most current version of the MedDRA® Version 22.0 or higher. The analysis of AEs will be based on the concept of treatment emergent AEs. Treatment emergent AEs will be tabulated by treatment group and will include the number of participants for whom the event occurred, the severity, and relationship to study drug. Treatment emergent AEs (TEAEs) leading to discontinuation and SAEs with onset after the start of study drug will also be summarized.
Treatment-emergent AEs (TEAEs) are defined as AEs that occur or worsen after the dose of study drug. If the timing of the start of an AE could not be determined unambiguously from the start or end dates provided, it will be assumed to be a TEAE. An AE is considered related if the relationship to either of the study drug has been indicated as possibly or probably or definite related by the investigator. An AE leading to study withdrawal is defined as an AE that cause a subject early terminated from the study. AEs will be identified as emerging in the following parts: • TEAEs for Part A will be those that started during Part A (i.e., from the first dose in Part A to end of follow up of Part A) • TEAEs for Part B will be those that started during Part B (i.e., from the first dose in Part B to end of follow-up of Part B).
• Incidence of treatment emergent adverse events (AEs) and serious adverse events (SAEs), including clinically significant vital signs. For Part A safety will be assessed from the time of randomization until 7 days following the last protocol dose. For Part B, participants will be followed for 28 days from the last study dose. • Serious adverse events will be monitored by a DSMB (Part A) and Drug Safety Officer (Part B) on an ongoing basis throughout the study. • Adverse events will be coded using the MedDRA and summarized by SOC, PT, and treatment group.

Row | Compound | Visual Analog Scale-Intestinal Problems, Baseline, Median (participants with SSc-RP [1]; Cilnidipine 20 mg) | Safety: withdrawals (participants with SSc-RP [2]; Cilnidipine 20 mg (n = 8)) [withdrawal] | Safety: number of AE (participants with SSc-RP [2]; Cilnidipine 20 mg (n = 8), HA-mild) | severity grade of adverse events (participants with SSc-RP [2]; Example 4) | tolerability (participants with SSc-RP [2]; Example 4, 10 mg and 20 mg, alone or in combination with tadalafil) | overall adverse event rate / incidence of Adverse Events (participants with SSc-RP [2]; Example 4, all patients who received any dose of cilnidipine (n=17)) [%] | Safety: withdrawals (participants with SSc-RP [2]; Pooled Cilnidipine (n = 9)) | Safety: number of AE (participants with SSc-RP [2]; Pooled Cilnidipine (n = 9), AE in combo with T) | Visual Analog Scale-Intestinal Problems, Baseline, Mean (participants with SSc-RP [1]; Tadalafil 5 mg) | Visual Analog Scale-Intestinal Problems, Baseline, Median (participants with SSc-RP [1]; Tadalafil 5 mg) | Visual Analog Scale-Intestinal Problems, Change from Baseline, Mean (participants with SSc-RP [1]; Tadalafil 5 mg) | Visual Analog Scale-Intestinal Problems, Change from Baseline, Median (participants with SSc-RP [1]; Tadalafil 5 mg) | Visual Analog Scale-Intestinal Problems, In Clinic Visit (Day 12), Mean (participants with SSc-RP [1]; Tadalafil 5 mg) | Visual Analog Scale-Intestinal Problems, In Clinic Visit (Day 12), Median (participants with SSc-RP [1]; Tadalafil 5 mg) | Visual Analog Scale-Intestinal Problems, Percent Change from Baseline, Mean (participants with SSc-RP [1]; Tadalafil 5 mg) [%] | Visual Analog Scale-Intestinal Problems, Percent Change from Baseline, Median (participants with SSc-RP [1]; Tadalafil 5 mg) [%] | Adverse Events (AEs): worst AE by group (participants with SSc-RP [2]; tadalafil monotherapy group)
1 | COCCOC(=O)C1=C(C)NC(C)=C(C(=O)OC/C=C/c2ccccc2)C1c1cccc([N+](=O)[O-])c1 (centres unmarked) [Cilnidipine, 1,4-dihydro-2,6-dimethyl,4-(3-nitrophenyl)-3,5-pyridinedicarboxylic acid 2-methoxyethyl (2 E)-3-phenyl-2-propenyl ester] | 1.000 | 1 | 1AE (HA-mild; | only Grade 1 Adverse Events (AEs) were reported; also recorded: only mild (Grade 1) adverse events occurred | well tolerated; also recorded: good tolerability | 17 | T); no withdrawals | 1AE (in combo with |  |  |  |  |  |  |  |  | 
2 | CN1CC(=O)N2[C@H](c3ccc4c(c3)OCO4)c3[nH]c4ccccc4c3C[C@@H]2C1=O [Tadalafil] |  |  |  |  |  |  |  |  | 0.925 | 0.950 | −0.250 | −0.150 | 1.175 | 0.100 | −2.55 | −88.89 | Worst AE in tadalafil

Reference: patent US20240398771A1, “TREATMENT OF SCLERODERMA AND RAYNAUD'S SYNDROME” (Aisa Pharma, Inc., priority 2023, published 2024)
